Data from ChEMBL document CHEMBL6071206, “Development of BODIPY FL SNS 032 as a Versatile Probe for Constitutive Androstane Receptor and Multiple Kinases” (ACS Med Chem Lett, 2024).
One block for each compound: values may come before it. Activity calls are given as the source filed them. No cut-off for these calls is given here.

Columns and labels:
[1] = target: T1, Nuclear receptor subfamily 1 group I member 3 (Homo sapiens, UniProt Q14994); assay: Inhibition of GST-tagged human CAR LBD at 90 uM incubated for 90 mins in presence of Cy5-PGC1-alpha by HTRF co-activator assay relative to control; settings: 1.5 h, read-out: Imax
T1 sequence (Q14994 whole entry): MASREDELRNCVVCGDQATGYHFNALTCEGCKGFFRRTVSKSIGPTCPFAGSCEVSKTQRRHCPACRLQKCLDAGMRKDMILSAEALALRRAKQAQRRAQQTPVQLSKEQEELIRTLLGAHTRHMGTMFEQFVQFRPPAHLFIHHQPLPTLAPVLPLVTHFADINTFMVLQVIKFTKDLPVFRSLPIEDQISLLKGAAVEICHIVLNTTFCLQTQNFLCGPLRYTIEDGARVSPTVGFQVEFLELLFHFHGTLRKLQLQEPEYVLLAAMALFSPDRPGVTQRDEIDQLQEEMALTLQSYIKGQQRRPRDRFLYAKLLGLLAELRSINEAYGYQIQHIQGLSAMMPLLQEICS

[2] = target: T1, Nuclear receptor subfamily 1 group I member 3; assay: Inhibition of GST-tagged human CAR LBD at 100 uM incubated for 90 mins by TR-FRET assay relative to control; settings: 1.5 h, read-out: Imax
[3] = target: T1, Nuclear receptor subfamily 1 group I member 3; assay: Inhibition of GST-tagged human CAR LBD incubated for 90 mins by TR-FRET assay
[4] = target: T2, Calcium/calmodulin-dependent protein kinase kinase 2 (Homo sapiens, UniProt Q96RR4); assay: Inhibition of GST-tagged human CAMKK2 incubated for 90 mins by TR-FRET assay
[5] = target: T3, Mitogen-activated protein kinase 15 (Homo sapiens, UniProt Q8TD08); assay: Inhibition of Flag/His-tagged human MAPK15 incubated for 90 mins by TR-FRET assay
T3 sequence (Q8TD08 whole entry): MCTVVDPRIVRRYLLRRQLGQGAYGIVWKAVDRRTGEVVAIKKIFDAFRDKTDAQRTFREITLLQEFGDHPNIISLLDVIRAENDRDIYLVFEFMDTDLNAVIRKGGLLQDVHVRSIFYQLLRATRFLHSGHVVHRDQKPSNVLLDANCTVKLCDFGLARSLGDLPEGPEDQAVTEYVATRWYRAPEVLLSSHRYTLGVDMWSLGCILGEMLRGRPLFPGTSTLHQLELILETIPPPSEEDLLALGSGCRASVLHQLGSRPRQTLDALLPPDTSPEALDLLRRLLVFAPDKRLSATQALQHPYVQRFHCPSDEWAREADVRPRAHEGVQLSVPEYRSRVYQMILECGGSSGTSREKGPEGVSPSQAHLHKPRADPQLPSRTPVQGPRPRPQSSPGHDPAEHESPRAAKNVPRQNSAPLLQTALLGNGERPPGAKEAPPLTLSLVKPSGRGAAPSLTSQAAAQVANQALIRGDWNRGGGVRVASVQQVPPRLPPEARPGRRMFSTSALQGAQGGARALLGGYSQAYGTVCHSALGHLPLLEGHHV

[6] = target: T4, Glycogen synthase kinase-3 alpha (Homo sapiens, UniProt P49840); assay: Inhibition of GST-tagged human GSK3A incubated for 90 mins by TR-FRET assay
[7] = target: T5, Peripheral plasma membrane protein CASK (Homo sapiens) (UniProt O14936); assay: Inhibition of GST-tagged human CASK at 90 uM incubated for 90 mins by TR-FRET assay relative to control
T5 sequence (whole entry): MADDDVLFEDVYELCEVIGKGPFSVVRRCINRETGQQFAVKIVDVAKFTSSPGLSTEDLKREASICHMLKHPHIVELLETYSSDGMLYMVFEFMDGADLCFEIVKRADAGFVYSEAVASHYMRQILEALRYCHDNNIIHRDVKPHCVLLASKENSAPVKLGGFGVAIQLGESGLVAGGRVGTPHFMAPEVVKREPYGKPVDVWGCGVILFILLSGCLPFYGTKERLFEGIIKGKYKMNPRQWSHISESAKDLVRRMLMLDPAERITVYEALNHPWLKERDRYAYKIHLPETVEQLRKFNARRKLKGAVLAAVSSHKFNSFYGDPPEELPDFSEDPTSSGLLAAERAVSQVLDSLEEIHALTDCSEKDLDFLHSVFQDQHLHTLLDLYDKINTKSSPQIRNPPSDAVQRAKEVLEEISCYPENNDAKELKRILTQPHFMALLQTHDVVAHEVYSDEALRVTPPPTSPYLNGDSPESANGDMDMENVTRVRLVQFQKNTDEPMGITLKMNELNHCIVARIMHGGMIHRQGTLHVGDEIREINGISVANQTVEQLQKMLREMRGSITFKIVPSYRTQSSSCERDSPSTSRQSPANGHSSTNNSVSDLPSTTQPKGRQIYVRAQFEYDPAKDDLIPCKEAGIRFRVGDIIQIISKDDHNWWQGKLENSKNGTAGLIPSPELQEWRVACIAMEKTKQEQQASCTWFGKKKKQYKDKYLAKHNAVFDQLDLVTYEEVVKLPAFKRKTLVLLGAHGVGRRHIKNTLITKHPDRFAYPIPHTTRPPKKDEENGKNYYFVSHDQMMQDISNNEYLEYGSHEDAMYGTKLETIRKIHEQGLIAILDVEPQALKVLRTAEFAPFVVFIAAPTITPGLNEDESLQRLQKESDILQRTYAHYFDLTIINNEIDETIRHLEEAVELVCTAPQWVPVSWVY

[8] = target: T1, Nuclear receptor subfamily 1 group I member 3; assay: Inhibition of GST-tagged human CAR LBD at 100 uM incubated for 90 mins in presence of Cy5-PGC1-alpha by HTRF co-activator assay relative to control; settings: 1.5 h, read-out: Imax
[9] = target: T1, Nuclear receptor subfamily 1 group I member 3; assay: Inhibition of GST-tagged human CAR LBD incubated for 90 mins in presence of Cy5-PGC1-alpha by HTRF co-activator assay
[10] = target: T6, Dual specificity tyrosine-phosphorylation-regulated kinase 2 (Homo sapiens) (UniProt Q92630); assay: Binding affinity to GST-tagged human DYRK2 incubated for 90 mins by TR-FRET assay
T6 sequence (whole entry): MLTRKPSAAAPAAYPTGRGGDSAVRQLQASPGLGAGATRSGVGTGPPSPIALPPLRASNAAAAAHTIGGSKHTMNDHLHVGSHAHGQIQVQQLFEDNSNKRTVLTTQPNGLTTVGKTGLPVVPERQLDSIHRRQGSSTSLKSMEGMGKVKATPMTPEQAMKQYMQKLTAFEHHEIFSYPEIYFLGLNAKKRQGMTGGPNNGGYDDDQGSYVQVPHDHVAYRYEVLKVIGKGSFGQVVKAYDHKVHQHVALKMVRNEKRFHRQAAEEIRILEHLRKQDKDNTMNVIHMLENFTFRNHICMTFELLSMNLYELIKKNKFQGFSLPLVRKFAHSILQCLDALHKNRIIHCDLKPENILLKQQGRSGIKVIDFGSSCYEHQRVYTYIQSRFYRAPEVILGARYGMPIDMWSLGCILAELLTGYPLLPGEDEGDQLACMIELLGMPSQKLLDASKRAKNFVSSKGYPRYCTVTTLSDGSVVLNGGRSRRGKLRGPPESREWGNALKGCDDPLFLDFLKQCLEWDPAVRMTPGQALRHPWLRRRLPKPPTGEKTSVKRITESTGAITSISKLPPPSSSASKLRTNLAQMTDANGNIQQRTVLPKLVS

[11] = target: T1, Nuclear receptor subfamily 1 group I member 3; assay: Binding affinity to GST-tagged human CAR LBD assessed as fold change in FRET signal at 125 nM incubated for 90 mins by TR-FRET assay relative to control; settings: 1.5 h, 0.125 µM
[12] = target: T1, Nuclear receptor subfamily 1 group I member 3; assay: Binding affinity to GST-tagged human CAR LBD assessed as fold change in FRET signal at 298.2 nM incubated for 90 mins by TR-FRET assay relative to control; settings: 1.5 h, 0.2982 µM
[13] = target: T2, Calcium/calmodulin-dependent protein kinase kinase 2; assay: Binding affinity to GST-tagged human CAMKK2 assessed as dissociation constant incubated for 90 mins by TR-FRET assay
[14] = target: T3, Mitogen-activated protein kinase 15; assay: Binding affinity to Flag/His-tagged human MAPK15 assessed as dissociation constant incubated for 90 mins by TR-FRET assay
[15] = target: CDK9/cyclin T1 (Homo sapiens, UniProt P50750); assay: Binding affinity to His-tagged human CDK9/CycT1 assessed as dissociation constant incubated for 90 mins by TR-FRET assay; type: protein-complex assay
[16] = target: T4, Glycogen synthase kinase-3 alpha; assay: Binding affinity to GST-tagged human GSK3A assessed as dissociation constant incubated for 90 mins by TR-FRET assay
[17] = target: T1, Nuclear receptor subfamily 1 group I member 3; assay: Binding affinity to GST-tagged human CAR LBD assessed as dissociation constant incubated for 90 mins by TR-FRET assay
[18] = target: T1, Nuclear receptor subfamily 1 group I member 3; assay: Inhibition of GST-tagged human CAR LBD at […] incubated for 90 mins in presence of Cy5-PGC1-alpha by HTRF co-activator assay relative to control; settings: 1.5 h, dose 3.3 µM, read-out: Imax
[19] = target: T7, Peripheral plasma membrane protein CASK (Homo sapiens, UniProt O14936); assay: Binding affinity to GST-tagged human CASK assessed as dissociation constant incubated for 90 mins by TR-FRET assay
T7 sequence (O14936 whole entry): T5 sequence (whole entry)

[20] = target: T1, Nuclear receptor subfamily 1 group I member 3; assay: Inhibition of GST-tagged human CAR LBD at 30 uM incubated for 90 mins in presence of Cy5-PGC1-alpha by HTRF co-activator assay relative to control; settings: 1.5 h, read-out: Imax
[21] = target: T1, Nuclear receptor subfamily 1 group I member 3; assay: Inhibition of GST-tagged human CAR LBD at 3 uM incubated for 90 mins in presence of Cy5-PGC1-alpha by HTRF co-activator assay relative to control; settings: 1.5 h, read-out: Imax
[22] = target: T1, Nuclear receptor subfamily 1 group I member 3; assay: Inhibition of GST-tagged human CAR LBD assessed as FRET signal stability measured for 90 to 180 mins incubated for 90 mins by TR-FRET assay; settings: time 90-180 min

T4 sequence (P49840 whole entry): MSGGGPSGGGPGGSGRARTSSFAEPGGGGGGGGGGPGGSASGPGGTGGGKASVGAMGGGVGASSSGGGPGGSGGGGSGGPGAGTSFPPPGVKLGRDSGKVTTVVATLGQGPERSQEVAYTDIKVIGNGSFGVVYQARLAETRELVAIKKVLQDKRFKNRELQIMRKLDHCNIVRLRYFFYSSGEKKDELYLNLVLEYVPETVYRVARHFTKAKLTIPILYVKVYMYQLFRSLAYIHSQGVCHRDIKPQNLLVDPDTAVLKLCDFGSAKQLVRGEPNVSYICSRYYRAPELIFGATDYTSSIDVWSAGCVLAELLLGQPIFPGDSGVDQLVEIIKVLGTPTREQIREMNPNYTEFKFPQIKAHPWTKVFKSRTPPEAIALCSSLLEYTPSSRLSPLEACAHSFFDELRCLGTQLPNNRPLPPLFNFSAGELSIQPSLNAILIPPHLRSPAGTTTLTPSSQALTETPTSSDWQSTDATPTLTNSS
T2 sequence (Q96RR4 whole entry): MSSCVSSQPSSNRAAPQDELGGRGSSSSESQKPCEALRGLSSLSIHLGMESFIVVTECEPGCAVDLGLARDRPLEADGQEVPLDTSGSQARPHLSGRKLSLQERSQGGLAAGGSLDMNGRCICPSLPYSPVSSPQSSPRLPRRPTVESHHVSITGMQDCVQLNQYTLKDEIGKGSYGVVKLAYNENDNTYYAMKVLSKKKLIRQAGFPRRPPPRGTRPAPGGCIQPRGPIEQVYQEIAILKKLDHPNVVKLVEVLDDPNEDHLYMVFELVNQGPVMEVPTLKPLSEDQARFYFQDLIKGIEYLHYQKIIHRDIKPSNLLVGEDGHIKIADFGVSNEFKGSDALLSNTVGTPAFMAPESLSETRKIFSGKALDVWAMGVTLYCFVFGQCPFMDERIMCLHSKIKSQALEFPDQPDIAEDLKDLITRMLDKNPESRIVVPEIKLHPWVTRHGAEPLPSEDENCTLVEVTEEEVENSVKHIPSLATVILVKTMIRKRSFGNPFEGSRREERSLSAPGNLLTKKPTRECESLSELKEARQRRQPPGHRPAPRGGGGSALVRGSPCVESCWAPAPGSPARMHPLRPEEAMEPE
CDK9/cyclin T1, sequence (O60563 whole entry): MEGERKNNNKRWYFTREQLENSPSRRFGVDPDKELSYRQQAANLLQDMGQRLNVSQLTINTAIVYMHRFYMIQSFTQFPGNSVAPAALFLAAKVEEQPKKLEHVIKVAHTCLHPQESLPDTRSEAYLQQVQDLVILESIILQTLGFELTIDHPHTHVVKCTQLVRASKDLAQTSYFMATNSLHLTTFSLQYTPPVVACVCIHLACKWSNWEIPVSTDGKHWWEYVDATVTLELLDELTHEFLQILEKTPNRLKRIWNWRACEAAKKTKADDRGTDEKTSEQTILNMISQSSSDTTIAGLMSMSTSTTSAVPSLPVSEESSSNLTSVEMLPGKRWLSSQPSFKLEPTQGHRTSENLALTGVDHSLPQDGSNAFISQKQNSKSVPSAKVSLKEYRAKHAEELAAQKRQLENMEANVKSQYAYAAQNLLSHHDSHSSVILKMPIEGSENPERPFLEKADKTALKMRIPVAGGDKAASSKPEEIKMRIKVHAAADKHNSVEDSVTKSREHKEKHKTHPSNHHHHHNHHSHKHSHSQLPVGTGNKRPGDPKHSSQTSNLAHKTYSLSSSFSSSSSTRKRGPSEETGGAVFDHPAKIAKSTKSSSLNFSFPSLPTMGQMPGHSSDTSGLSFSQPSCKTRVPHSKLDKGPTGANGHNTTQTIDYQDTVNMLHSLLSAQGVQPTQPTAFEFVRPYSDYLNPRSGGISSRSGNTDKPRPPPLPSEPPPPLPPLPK
CDK9/cyclin T1, sequence (P50750 whole entry): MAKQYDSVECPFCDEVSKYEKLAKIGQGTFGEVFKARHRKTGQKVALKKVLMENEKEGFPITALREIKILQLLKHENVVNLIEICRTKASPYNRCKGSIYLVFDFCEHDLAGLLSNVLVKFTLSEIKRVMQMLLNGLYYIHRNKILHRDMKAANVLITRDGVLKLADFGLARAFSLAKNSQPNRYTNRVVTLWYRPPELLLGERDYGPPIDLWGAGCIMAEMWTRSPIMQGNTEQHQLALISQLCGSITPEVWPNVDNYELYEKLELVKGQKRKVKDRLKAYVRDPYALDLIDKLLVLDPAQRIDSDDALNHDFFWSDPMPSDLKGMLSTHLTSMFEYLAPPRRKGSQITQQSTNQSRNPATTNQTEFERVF

inhibition at 90 µM [1]: 26.4%
inhibition at 100 µM [2]: 50.8%
EC50 [3]: 51100 nM
Compound: CC(C)(C)c1cnc(CSc2cnc(NC(=O)C3CCNCC3)s2)o1 [BMS-387032]

IC50 [4]: 1200 nM
IC50 [6]: 29.1 nM
inhibition [7]: 27.3%
Compound: COc1cc(F)ccc1-c1ncnc(Nc2cccc(C[S@](C)(=N)=O)c2)n1 [ATUVECICLIB]
IC50 [5]: 2600 nM

Compound: C[C@]12CC[C@@H](O)C[C@@H]1CC[C@@H]1[C@@H]2CC[C@]2(C)C=CC[C@@H]12 [ANDROSTENOL]
inhibition at 100 µM [8]: 84.7%
IC50 [9]: 250 nM
IC50 [3]: 339 nM

Activity [10]: inactive
fold change (FC) [11]: 9.7
fold change (FC) [12]: 9.1
Kd [13]: 530 nM
IC50 [9]: 224 nM
Kd [15]: 5.1 nM
Kd [16]: 4.5 nM
Kd [17]: 300 nM
inhibition at […] [18]: 95.9%
Kd [19]: 550 nM
Compound: Cc1cc(C)n2c1C=C1C=CC(CCC(=O)N3CCC(C(=O)Nc4ncc(SCc5ncc(C(C)(C)C)o5)s4)CC3)=[N+]1[B-]2(F)F
Kd [14]: 340 nM

IC50 [3]: 651 nM
Compound: O=S(=O)(c1ccccc1)N(CC(F)(F)F)c1ccc(C(O)(C(F)(F)F)C(F)(F)F)cc1 [T091317]

inhibition at 30 µM [20]: 100%
IC50 [9]: 258 nM
IC50 [3]: 162 nM
Compound: CCOC(=O)Nc1ccc2c(c1)N(C(=O)CN(CC)CC)c1ccccc1CC2

inhibition at 3 µM [21]: 100%
inhibition (INH) [22]: Active
Compound: Clc1ccc(-c2nc3sccn3c2/C=N/OCc2ccc(Cl)c(Cl)c2)cc1

Compound: CC[C@H](Nc1nc(NCc2cnc(C)cc2C)c2ncn(C(C)C)c2n1)[C@@H](C)O [CYC-065]
IC50 [4]: 13200 nM
IC50 [5]: 386 nM
IC50 [6]: 11100 nM
